Data as given in patent US5401514A, “Solid, fast-soluble pharmaceutical preparation containing S-(carboxymethyl)-L-cysteine and/or N-acetylcysteine” (Spirig AG, Pharmazeutische Praeparate, priority 1990, dated 1995).

What was measured:
[1] = background knowledge; cited from earlier work
[2] = Comparative bioavailability test in 10 subjects, plasma N-acetylcysteine by HPLC (tributyl phosphine reduction, o-phthalaldehyde post-column derivatization), oral 200 mg
Excerpt: A process for quantitative determination of N-acetylcysteine in plasma was used, which split the active ingredient with tributyl phosphine reductively and derivatized in with a post-HPLC column using o-phthalaldehyde.
The comparative test is documented in Biopharmaceutics & Drug Disposition, Vol. 12, 343-353 (1991).

In the case of CC(=O)N[C@@H](CS)C(=O)O [N-acetylcysteine], the main effect [1] is listed as “expectorant”, the tolerability [1] is listed as “very well tolerated” and the “endogenous average concentrations in plasma” value ([2]; human, in vivo) is listed as 0.08 µM. For the same molecule, the “Cmax relative to endogenous plasma values” ([2]; one 200 mg dose, oral, up to) was “up to 20 times”.
In the case of N[C@@H](CSCC(=O)O)C(=O)O [carbocysteine, S-(carboxymethyl)-L-cysteine], the main effect [1] is given as “expectorant” and the tolerability [1] is given as “very well tolerated”.
